Measured values taken from ChEMBL document CHEMBL1201862, “PubChem BioAssay data set” (2004).
The source made the active and inactive calls.

Columns and labels:
[1] = biological target: ADP-ribosylation factor GTPase-activating protein 1 (Rattus norvegicus, UniProt Q62848); test: Fluorescence polarization-based biochemical high throughput dose response screening assay to identify inhibitors of ADP-ribosylation factor GTPase activating protein 1 (ARFGAP1).; type: functional
[2] = biological target: Arf-GAP with SH3 domain, ANK repeat and PH domain-containing protein 1 (Homo sapiens, UniProt Q9ULH1); type: functional;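 also: biochemical fluorescence polarization dose–response screen measuring inhibition of ASAP1; ASAP1 GAP domain stimulating GTP hydrolysis by truncated human ARF1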
[3] = biological target: T1, Calpain-2 catalytic subunit (Sus scrofa, UniProt P43367); test: m-calpain protease blockers, concentration series – biochemical, fluorogenic peptide substrate, dose response (AID 1420); type: functional
T1 sequence (P43367 whole entry): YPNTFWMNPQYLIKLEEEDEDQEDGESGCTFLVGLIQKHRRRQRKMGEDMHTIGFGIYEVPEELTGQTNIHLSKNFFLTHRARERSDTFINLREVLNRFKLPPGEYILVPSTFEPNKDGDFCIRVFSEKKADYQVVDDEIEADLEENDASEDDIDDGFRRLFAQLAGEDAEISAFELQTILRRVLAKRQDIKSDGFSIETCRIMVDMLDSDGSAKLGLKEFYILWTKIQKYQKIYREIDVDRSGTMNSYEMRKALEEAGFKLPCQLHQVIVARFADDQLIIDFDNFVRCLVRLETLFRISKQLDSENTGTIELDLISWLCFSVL

Kallikrein-7 = Kallikrein-7 (Homo sapiens, UniProt P49862); test: Fluorescence Intensity-based biochemical primary high throughput dose response assay to identify activators of kallikrein-7 (K7) zymogen.
[4] = optical artefact potency, substrate without enzyme – biochemical, fluorescence intensity, triplicate, artefact control for kallikrein-7 zymogen activator project, dose response (AID 720493)
[5] = A Cell-Based Confirmatory Screen for Compounds that Inhibit VEEV, TC-83 (7).; type: functional
[6] = loss of viability in embryonic kidney cells – cell-based, HEK293T, ATP luminescence, dry powder, cytotoxicity control, dose response (AID 652119); type: functional; conditions: HEK293
[7] = biological target: Protein disulfide-isomerase (Homo sapiens, UniProt P07237); test: inhibition of PDI-mediated insulin reduction – biochemical, turbidity, dry powder samples, set 2, confirmation (AID 652146)
[8] = viability loss in HepG2 cells – cell-based, luminescence, dry powder, set 5, cytotoxicity control, dose response (AID 743185); type: functional
[9] = anti-trypanosomal activity in BESM host cells – imaging, CA-I/72 strain, bovine embryo skeletal muscle, dry powder, dose response (AID 651885); type: functional, cell-based
Mu-type opioid receptor = Mu-type opioid receptor (Homo sapiens, UniProt P35372); type: functional, cell-based;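 also: U2OS cells with beta-arrestin recruitment to OPRM1 by beta-gal complementation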
[10] = biological target: 5-hydroxytryptamine receptor 2A (Mus musculus, UniProt P35363); type: functional, cell-based;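 also: CHO-K1 cells with tagged receptor and beta-arrestin; agonist potency measured as compound-induced activation of the receptor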
[11] = biological target: T2, Methionyl-tRNA synthetase, putative (Trypanosoma brucei brucei, UniProt Q38C91); type: functional, Trypanosoma brucei brucei strain 927/4 GUTat10.1
[12] = Counterscreen for inhibitors of Trypanosoma brucei methionyl tRNA synthetase (MetRS): Luminescence-based cell-based high throughput dose response assay to identify compounds that are cytotoxic to Jurkat human T lymphocyte cells.; type: functional
[13] = biological target: T2, Methionyl-tRNA synthetase, putative; type: functional, Trypanosoma brucei brucei strain 927/4 GUTat10.1; remark: listed apart in the source
[14] = inhibition of mouse IRAP aminopeptidase activity – biochemical, Leu-AMC fluorescence, cherry-picked samples, set 2, selectivity assay for ERAP1 modulator project, dose response (AID 743340)
HeLa = test: viability loss in HeLa cells – cell-based, ATP luminescence, cherry-pick samples, cytotoxicity control, dose response (AID 687004); type: functional; conditions: Homo sapiens
HEK293 = test: viability loss in HEK293T cells – cell-based, ATP luminescence, cherry-pick samples, cytotoxicity control, dose response (AID 687005); type: functional; conditions: Homo sapiens;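 also: cells exposed to compound for 48 hours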
[15] = HEK293 Cytotoxicity Assay Measured in Cell-Based System Using Plate Reader - 7071-01_Inhibitor_Dose_CherryPick_Activity_Set2.; type: functional
[16] = CTGF mRNA reduction in DLD1 cells – cell-based, DLD1 colon cancer, RT-qPCR, cherry-pick, dose response (AID 1053122); type: functional; conditions: Cancer cell lines
Albumin = Albumin (Bos taurus, UniProt P02769); test: Counterscreen for inhibitors of T-cell receptor (TCR)-CD3 interaction: Fluorescence-based biochemical high throughput dose response assay to identify inhibitors of T-cell receptor (TCR)-CD3 interaction using a TAMRA-labeled BSA probe.; type: functional
[17] = biological target: T3, Carboxy-terminal domain RNA polymerase II polypeptide A small phosphatase 1 (Homo sapiens, UniProt Q9GZU7); test: CTDSP1 inhibitors, concentration-response, biochemical, absorbance readout, ultra-high-throughput screen actives (AID 540297); type: functional
T3 sequence (Q9GZU7 whole entry): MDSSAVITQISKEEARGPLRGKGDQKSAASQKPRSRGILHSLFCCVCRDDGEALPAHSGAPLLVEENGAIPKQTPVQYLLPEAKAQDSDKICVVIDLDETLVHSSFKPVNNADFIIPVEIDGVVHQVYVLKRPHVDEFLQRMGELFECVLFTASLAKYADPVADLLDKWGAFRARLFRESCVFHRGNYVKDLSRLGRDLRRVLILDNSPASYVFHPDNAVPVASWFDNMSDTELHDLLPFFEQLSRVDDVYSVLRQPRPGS

[18] = biological target: T4, Corticotropin-releasing factor receptor 2/Corticotropin-releasing factor-binding protein (Homo sapiens, UniProt P24387+Q13324); test: Dose Response confirmation of uHTS hits for small molecule antagonists of the CRF-binding protein and CRF-R2 receptor complex.; type: functional; conditions: read-out: IC50_Mean
T4 sequence (Q13324 whole entry): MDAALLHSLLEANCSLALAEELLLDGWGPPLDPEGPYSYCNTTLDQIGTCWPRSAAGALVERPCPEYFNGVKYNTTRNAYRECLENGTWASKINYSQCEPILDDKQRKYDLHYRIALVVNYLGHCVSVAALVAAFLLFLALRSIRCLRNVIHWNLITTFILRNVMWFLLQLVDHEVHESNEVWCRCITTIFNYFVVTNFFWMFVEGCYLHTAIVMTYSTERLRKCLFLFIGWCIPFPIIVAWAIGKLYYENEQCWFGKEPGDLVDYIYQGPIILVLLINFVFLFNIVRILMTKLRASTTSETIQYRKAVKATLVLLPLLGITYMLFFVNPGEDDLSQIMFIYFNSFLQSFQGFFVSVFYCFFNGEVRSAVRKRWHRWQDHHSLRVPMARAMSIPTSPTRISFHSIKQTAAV
T4 sequence (P24387 whole entry): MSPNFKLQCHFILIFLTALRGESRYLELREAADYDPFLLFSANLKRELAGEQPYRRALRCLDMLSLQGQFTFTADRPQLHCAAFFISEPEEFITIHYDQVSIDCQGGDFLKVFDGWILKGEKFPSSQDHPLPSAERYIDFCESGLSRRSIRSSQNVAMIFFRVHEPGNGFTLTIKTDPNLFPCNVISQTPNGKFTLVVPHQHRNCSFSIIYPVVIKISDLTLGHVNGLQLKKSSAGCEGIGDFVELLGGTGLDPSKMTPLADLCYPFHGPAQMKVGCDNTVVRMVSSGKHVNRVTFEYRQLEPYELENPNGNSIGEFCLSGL

[19] = biological target: Tyrosine-protein phosphatase non-receptor type 11 (Homo sapiens, UniProt Q06124); test: PTPN11 enzyme inhibitors – biochemical, selectivity assay for STEP inhibitor project, dose response (AID 602367); type: functional; conditions: read-out: IC50_Mean
[20] = biological target: Tyrosine-protein phosphatase non-receptor type 5 (Homo sapiens, UniProt P54829); test: PTPN5 enzyme inhibition – biochemical, fluorescence intensity, uHTS hits, confirmation (AID 602372); type: functional; conditions: read-out: IC50_Mean
[21] = biological target: T4, Corticotropin-releasing factor receptor 2/Corticotropin-releasing factor-binding protein; test: activators of CRF receptor 2 with binding protein – uHTS hits, confirmation (AID 602473); type: functional; conditions: read-out: EC50_Mean
[22] = biological target: Dual specificity protein phosphatase 3 (Homo sapiens, UniProt P51452); test: VHR phosphatase inhibition, dose response, selectivity assay for STEP inhibitor project, biochemical (AID 602374); type: functional; conditions: read-out: IC50_Mean
[23] = biological target: T5, Small ubiquitin-related modifier 1 (Homo sapiens, UniProt P63165); test: SUMO1 protein interaction blockers, potency – biochemical, fluorescence polarization, uHTS hits, dose response (AID 624382); type: functional; conditions: read-out: IC50_Mean
[24] = biological target: T5, Small ubiquitin-related modifier 1; test: SUMO1 protein-protein binding blockers, potency – biochemical, FRET, dose response (AID 624383); type: functional; conditions: read-out: IC50_Mean
[25] = biological target: T6, Tyrosine-protein phosphatase non-receptor type 22 (Homo sapiens, UniProt Q9Y2R2); test: lymphoid phosphatase LYP inhibitors – biochemical, selectivity assay for STEP inhibitor project, dose response (AID 624241); type: functional
T6 sequence (Q9Y2R2 whole entry): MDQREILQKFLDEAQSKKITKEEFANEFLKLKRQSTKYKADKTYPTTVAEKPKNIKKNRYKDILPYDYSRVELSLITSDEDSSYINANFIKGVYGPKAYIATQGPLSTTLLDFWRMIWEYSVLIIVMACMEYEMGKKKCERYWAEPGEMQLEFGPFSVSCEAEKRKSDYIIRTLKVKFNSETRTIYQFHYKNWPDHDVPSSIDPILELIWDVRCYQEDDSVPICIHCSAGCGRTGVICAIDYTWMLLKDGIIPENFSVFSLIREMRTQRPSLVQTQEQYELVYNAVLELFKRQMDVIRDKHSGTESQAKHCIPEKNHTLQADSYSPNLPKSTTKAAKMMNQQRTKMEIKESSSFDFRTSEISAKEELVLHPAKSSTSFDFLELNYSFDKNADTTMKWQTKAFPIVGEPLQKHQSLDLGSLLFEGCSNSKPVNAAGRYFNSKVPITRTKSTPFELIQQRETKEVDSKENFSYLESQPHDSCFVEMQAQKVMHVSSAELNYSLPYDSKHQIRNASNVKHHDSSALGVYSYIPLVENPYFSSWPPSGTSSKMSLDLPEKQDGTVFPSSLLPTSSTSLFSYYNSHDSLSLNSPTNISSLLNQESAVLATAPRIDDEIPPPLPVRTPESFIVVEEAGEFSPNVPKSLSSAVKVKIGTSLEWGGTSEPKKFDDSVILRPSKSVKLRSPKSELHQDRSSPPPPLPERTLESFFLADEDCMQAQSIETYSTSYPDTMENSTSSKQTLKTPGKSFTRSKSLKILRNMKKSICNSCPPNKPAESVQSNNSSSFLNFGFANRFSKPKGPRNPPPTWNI

[26] = Luminescence Cell-Based Dose Retest to Confirm Inhibitors of Cancer Stem Cells. [Related pubchem assays (depositor defined):AID2717, AID2721]; type: functional; conditions: Homo sapiens
[27] = biological target: T7, Beta-2 adrenergic receptor (Homo sapiens, UniProt P07550); test: ADRB2 activation measured by internalization – cell-based, FAP fluorogen, flow cytometry, cherry pick 1, dose response (AID 588763); type: functional
[28] = biological target: T7, Beta-2 adrenergic receptor; test: Dose response for HTS for Beta-2AR agonists via FAP method from Powderset3.; type: functional
[29] = viability of uninfected HEp-2 cells – cell-based, HTS, cytotoxicity control for RSV inhibitor project, dose response (AID 2410); type: functional; conditions: human respiratory syncytial virus
[30] = viability loss in HepG2 liver cells – cell-based, ATP luminescence, cherry-pick, set 6, cytotoxicity control, dose response (AID 1053125); type: functional
cells [31] = conditions: A549
cells [32] = conditions: HEK293;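 also: cells exposed to compound for 48 hours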

T5 sequence (P63165 whole entry): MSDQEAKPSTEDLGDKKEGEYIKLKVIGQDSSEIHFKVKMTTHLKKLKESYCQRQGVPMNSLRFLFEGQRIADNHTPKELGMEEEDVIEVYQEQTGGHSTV
T7 sequence (P07550 whole entry): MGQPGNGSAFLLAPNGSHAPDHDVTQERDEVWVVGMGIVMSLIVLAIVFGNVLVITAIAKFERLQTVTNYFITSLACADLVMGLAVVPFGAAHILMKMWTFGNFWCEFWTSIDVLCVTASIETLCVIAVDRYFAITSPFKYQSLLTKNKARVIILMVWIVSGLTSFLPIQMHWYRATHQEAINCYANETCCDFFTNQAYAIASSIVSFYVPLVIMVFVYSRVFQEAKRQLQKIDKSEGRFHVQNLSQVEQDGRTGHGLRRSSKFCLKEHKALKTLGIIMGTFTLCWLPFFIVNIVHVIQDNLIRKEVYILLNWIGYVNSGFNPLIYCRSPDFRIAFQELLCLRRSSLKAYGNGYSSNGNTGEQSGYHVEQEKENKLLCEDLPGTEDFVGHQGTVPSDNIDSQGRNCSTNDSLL
T2 sequence (Q38C91 whole entry): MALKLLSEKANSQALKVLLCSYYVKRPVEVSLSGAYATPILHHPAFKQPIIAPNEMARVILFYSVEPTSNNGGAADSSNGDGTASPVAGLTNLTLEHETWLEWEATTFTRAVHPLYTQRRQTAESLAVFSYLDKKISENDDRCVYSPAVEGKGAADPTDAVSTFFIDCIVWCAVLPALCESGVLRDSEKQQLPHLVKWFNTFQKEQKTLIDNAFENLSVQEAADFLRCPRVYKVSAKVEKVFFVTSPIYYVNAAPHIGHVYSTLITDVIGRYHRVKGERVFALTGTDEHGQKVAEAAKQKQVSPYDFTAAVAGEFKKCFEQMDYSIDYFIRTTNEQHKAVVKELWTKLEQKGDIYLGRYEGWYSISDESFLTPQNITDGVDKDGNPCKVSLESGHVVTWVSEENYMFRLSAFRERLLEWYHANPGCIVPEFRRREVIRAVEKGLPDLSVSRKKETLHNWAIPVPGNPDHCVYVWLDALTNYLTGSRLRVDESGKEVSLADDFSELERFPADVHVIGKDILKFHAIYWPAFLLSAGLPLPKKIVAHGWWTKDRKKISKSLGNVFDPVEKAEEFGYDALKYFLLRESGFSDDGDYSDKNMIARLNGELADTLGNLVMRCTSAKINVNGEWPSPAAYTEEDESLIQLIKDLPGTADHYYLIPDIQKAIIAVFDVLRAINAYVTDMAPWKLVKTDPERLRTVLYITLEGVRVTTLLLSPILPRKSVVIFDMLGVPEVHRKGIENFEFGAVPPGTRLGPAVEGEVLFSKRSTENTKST
Protein disulfide-isomerase, sequence (P07237 whole entry): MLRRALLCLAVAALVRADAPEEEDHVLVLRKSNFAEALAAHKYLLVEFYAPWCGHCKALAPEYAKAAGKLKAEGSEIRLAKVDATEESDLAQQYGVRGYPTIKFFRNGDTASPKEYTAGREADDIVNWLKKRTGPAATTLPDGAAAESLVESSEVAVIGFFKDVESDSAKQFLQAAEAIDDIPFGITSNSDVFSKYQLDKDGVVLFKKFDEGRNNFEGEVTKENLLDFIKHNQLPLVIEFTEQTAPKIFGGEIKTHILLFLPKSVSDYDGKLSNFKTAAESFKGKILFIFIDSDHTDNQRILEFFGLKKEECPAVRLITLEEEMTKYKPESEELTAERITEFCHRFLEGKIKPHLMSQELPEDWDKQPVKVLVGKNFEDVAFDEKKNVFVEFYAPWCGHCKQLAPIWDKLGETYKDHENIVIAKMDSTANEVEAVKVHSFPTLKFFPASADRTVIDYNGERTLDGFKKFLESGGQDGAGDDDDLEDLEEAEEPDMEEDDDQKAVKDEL
Tyrosine-protein phosphatase non-receptor type 11, sequence (Q06124 whole entry): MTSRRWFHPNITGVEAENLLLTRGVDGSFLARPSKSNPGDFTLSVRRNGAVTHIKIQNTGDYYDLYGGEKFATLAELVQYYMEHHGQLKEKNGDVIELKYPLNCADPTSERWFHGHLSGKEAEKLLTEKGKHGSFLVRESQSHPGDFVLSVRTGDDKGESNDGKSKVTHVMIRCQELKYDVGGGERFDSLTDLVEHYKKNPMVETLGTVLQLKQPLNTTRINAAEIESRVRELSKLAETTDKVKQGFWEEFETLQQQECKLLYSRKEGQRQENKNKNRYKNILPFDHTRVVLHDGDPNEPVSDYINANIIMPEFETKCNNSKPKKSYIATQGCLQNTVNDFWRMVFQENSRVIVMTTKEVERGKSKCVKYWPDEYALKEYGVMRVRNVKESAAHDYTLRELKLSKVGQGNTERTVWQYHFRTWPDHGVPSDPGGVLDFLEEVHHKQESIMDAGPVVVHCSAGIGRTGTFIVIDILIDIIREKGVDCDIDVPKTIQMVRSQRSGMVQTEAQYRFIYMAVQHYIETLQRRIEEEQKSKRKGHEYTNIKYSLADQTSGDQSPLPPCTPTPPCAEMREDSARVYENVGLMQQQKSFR
Mu-type opioid receptor, sequence (P35372 whole entry): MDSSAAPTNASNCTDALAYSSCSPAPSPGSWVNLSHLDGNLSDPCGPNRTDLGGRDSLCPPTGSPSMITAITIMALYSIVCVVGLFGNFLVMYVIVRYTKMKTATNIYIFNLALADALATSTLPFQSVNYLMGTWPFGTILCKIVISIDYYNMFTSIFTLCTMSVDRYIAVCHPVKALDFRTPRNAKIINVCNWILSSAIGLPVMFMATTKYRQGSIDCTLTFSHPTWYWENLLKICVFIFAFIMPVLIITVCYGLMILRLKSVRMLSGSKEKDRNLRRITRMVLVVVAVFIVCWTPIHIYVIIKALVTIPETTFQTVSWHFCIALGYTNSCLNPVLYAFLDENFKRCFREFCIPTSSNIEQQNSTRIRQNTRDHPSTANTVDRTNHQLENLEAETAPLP
Albumin, sequence (P02769 whole entry, the tested form may be a part): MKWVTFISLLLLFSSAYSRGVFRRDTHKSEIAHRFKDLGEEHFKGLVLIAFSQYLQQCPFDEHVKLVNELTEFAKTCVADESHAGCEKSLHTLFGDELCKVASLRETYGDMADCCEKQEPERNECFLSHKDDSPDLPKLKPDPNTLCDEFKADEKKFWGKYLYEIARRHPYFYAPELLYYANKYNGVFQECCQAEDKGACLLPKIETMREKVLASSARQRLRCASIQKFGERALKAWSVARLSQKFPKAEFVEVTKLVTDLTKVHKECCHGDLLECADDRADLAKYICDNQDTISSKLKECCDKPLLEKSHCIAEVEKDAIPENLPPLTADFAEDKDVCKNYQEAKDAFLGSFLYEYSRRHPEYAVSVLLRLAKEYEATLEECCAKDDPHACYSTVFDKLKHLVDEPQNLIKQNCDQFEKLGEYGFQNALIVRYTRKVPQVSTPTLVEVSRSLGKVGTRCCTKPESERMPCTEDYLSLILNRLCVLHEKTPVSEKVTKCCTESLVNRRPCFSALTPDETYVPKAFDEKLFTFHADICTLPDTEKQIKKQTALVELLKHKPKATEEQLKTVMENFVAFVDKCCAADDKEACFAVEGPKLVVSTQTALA
5-hydroxytryptamine receptor 2A, sequence (P35363 whole entry): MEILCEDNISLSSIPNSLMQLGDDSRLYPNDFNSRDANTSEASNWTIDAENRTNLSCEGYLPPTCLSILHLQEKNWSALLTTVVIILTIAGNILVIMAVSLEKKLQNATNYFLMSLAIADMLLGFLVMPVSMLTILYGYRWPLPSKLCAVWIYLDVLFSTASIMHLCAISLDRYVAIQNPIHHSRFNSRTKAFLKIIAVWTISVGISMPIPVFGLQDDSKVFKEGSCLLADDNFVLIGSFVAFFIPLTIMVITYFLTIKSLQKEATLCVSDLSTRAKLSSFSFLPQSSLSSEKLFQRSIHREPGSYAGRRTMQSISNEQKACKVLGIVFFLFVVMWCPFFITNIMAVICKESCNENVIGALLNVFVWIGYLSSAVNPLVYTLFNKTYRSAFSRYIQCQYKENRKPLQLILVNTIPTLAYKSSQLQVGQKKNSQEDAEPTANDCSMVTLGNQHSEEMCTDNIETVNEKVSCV
Kallikrein-7, sequence (P49862 whole entry): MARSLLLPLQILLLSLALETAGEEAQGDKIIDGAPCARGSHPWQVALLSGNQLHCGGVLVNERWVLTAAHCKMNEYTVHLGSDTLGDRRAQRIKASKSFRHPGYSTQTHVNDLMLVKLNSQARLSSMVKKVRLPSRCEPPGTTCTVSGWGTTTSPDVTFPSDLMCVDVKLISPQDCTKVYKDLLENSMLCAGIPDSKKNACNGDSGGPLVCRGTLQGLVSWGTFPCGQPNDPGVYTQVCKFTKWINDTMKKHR
Tyrosine-protein phosphatase non-receptor type 5, sequence (P54829 whole entry): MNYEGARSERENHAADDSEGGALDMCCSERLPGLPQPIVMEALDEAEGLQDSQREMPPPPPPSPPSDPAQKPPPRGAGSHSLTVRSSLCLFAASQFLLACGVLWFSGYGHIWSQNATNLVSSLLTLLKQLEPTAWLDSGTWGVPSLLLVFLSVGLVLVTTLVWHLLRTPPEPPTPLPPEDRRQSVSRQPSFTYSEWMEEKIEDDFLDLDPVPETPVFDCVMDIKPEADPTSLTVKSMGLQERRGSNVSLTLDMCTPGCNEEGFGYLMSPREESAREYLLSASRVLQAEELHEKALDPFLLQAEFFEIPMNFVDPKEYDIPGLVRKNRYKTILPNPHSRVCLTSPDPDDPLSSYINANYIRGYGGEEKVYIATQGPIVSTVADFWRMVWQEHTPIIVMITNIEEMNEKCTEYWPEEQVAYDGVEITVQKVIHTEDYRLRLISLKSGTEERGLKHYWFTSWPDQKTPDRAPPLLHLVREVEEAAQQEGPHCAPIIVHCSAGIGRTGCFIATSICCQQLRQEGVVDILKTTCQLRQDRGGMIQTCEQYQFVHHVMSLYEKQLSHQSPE
Dual specificity protein phosphatase 3, sequence (P51452 whole entry): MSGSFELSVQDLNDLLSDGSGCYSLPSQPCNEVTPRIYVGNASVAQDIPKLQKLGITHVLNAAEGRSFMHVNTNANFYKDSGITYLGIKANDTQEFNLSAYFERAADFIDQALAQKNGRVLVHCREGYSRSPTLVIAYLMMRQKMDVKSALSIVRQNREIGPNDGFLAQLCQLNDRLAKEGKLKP

CC1=CC2=NC(=O)/C(=C\c3ccc(-c4cccc(Cl)c4)o3)C(=N)N2O1
IC50 [1]: 2.03 µM (active)
IC50 [2]: 13.3 µM (inactive)

COc1ccc2c(c1)C(=O)CC(O)(C(F)F)O2 (configuration not stated)
IC50 [3]: 8.34 µM (not active)
EC50 (Kallikrein-7): 16.5 µM (inactive)
EC50 [4]: > 7.73 µM (active)

O=c1c2cc(F)c(F)cc2nc(CN2CCNCC2)n1-c1ccccc1
IC50 [5]: 22.4 µM (active)

C=CCOc1ccc(CN2CCC(CCOc3ccccc3)(C(=O)NCC)CC2)cc1Cl
AC50 [6]: > 52 µM (inactive)
AC50 [7]: > 30 µM (inactive)

O=C(N/N=C/c1c[nH]c2ccccc12)c1cccc(O)c1
AC50 [8]: > 52 µM (inactive)

C[C@@H]1CN([C@@H](C)CO)C(=O)c2cccc(NC(=O)c3ccncc3)c2O[C@H]1CN(C)Cc1ccc(C(=O)O)cc1
IC50 [9]: 14.1 µM (inactive)

CC(C)(C)C1CCC(OCC(O)CN2CCN(c3ccccn3)CC2)CC1 (configuration not stated)
EC50 (Mu-type opioid receptor): 92.5 µM (inactive)
EC50 [10]: 0.548 µM (active)

Cc1ccc2[nH]c3c(NCCCN4CCCC4=O)ncnc3c2c1
IC50 [11]: 27.9 µM (inactive)
IC50 [12]: 17.9 µM (inactive)
IC50 [13]: 23.3 µM (inactive)

C[C@H]1CN([C@@H](C)CO)C(=O)c2cccc(NC(=O)Nc3ccc(C(F)(F)F)cc3)c2O[C@@H]1CN(C)CC1CC1
AC50 [14]: 16 µM (active)

C[C@@H](NC(=O)C[C@@H]1CC[C@@H]2[C@H](COC[C@H](O)CN2Cc2cc(F)ccc2F)O1)c1ccccc1
AC50 (HeLa): > 52 µM (inactive)
AC50 (HEK293): 5.05 µM (active)
AC50 [15]: 5.05 µM (active)

O=C(c1cccc(F)c1)N1CCCCN2[C@H](CO)[C@H](c3ccc(C#CC4(O)CCCC4)cc3)[C@@H]2C1
AC50 [16]: 2.86 µM (active)

CN=C(S)NNC(=O)c1cccn(Cc2ccc(Cl)c(Cl)c2)c1=O
IC50 (Albumin): > 94 µM (inactive)

CN(C)c1ccc(C(=O)OCC(=O)Nc2ccc(S(N)(=O)=O)cc2)cc1
IC50 [17]: 8.63 µM (active)
IC50 [18]: > 47.1 µM (inactive)
IC50 [19]: 4.13 µM (active)
IC50 [20]: 7.3 µM (active)
EC50 [21]: > 53 µM (inactive)
IC50 [22]: 6.56 µM (active)
IC50 [23]: > 66.6 µM (inactive)
IC50 [24]: 12.8 µM (active)
IC50 [25]: 67.7 µM (inactive)

Cc1ncc(CN2CCCC(C(=O)Nc3ccc(-c4cccc(F)c4)cc3)C2)s1 (configuration not stated)
AC50 [26]: 6.84 µM (active)
EC50 [27]: 3.37 µM (active)
EC50 [28]: 0.731 µM (active)

CCN1CCc2c(sc(NC(=O)Nc3ccc(Cl)c(Cl)c3)c2C(N)=O)C1
CC50 [29]: 10.4 µM (active)
AC50 [30]: 15.4 µM (active)
AC50 (cells [31]): 15.3 µM (active)
AC50 (cells [32]): 15.2 µM (active)
